US11787825B2 (priority 2021, dated 2023)

Conditions: 1.0% DMSO, 24-hour incubation at ambient temperature, maximum theoretical compound concentration 100 μM; for pH 2 solubility: 0.1N HCL; for pH 7 solubility: 1×PBS buffer (pH 7.4)

| Compound | pH 2 solubility | pH 7 solubility |
| --- | --- | --- |
| CC(C)(C#Cc1ccc(-c2ccc(Cl)c3c(N(C(=O)C[N+](C)(C)C)S(C)(=O)=O)nn(CC(F)(F)F)c23)c([C@H](Cc2cc(F)cc(F)c2)NC(=O)Cn2nc(C(F)(F)F)c3c2C(F)(F)[C@@H]2C[C@H]32)n1)S(C)(=O)=O [Compound 5, 2-(N-(4-chloro-7-(2-((S)-1-(2-((3bS,4aR)-5,5-difluoro (trifluoromethyl)-3b,4,4a,5-tetrahydro-1H-cyclopropa[3,4]cyclopenta[1,2-c]pyrazolyl)acetamido)-2-(3,5-difluorophenyl)ethyl)-6-(3-methyl-3-(methylsulfonyl)but-1-ynyl)pyridin-3-yl)-1-(2,2,2-trifluoroethyl)-1H-indazol-3-yl)methylsulfonamido)-N,N,N-trimethyl-2-oxoethan-1-aminium] | 45 μM | 6 μM |
| COC(=O)N[C@@H](C)C(=O)N(c1nn(CC(F)(F)F)c2c(-c3ccc(C#CC(C)(C)S(C)(=O)=O)nc3[C@H](Cc3cc(F)cc(F)c3)NC(=O)Cn3nc(C(F)(F)F)c4c3C(F)(F)[C@@H]3C[C@H]43)ccc(Cl)c12)S(C)(=O)=O [Compound 7, methyl ((5)-1-(N-(4-chloro-7-(2-((S)-1-(2-((3bS,4aR)-5,5-difluoro-3-(trifluoromethyl)-3b,4,4a,5-tetrahydro-1H-cyclopropa[3,4]cyclopenta[1,2-c]pyrazol-1-yl)acetamido)-2-(3,5-difluorophenyl)ethyl)-6-(3-methyl-3-(methylsulfonyl)but-1-yn-1-yl)pyridin-3-yl)-1-(2,2,2-trifluoroethyl)-1H-indazol-3-yl)methylsulfonamido)-1-oxopropan-2-yl)carbamate] | 1/1 μM | 1/1 μM |
| CC(C)[C@@H](C(=O)N(c1nn(CC(F)(F)F)c2c(-c3ccc(C#CC(C)(C)S(C)(=O)=O)nc3[C@H](Cc3cc(F)cc(F)c3)NC(=O)Cn3nc(C(F)(F)F)c4c3C(F)(F)[C@@H]3C[C@H]43)ccc(Cl)c12)S(C)(=O)=O)N(C)C [Compound 8, N-(4-chloro-7-(2-((S)-1-(2-((3bS,4aR)-5,5-difluoro-3-(trifluoromethyl)-3b,4,4a,5-tetrahydro-1H-cyclopropa[3,4]cyclopenta[1,2-c]pyrazol-1-yl)acetamido)-2-(3,5-difluorophenyl)ethyl)-6-(3-methyl-3-(methylsulfonyl)but-1-yn-1-yl)pyridin-3-yl)-1-(2,2,2-trifluoroethyl)-1H-indazol-3-yl)-2-(dimethylamino)-3-methyl-N-(methylsulfonyl)butanamide] | 51 μM | 1 μM |
| COCCOCCOCCOCCOCC(=O)N(c1nn(CC(F)(F)F)c2c(-c3ccc(C#CC(C)(C)S(C)(=O)=O)nc3[C@H](Cc3cc(F)cc(F)c3)NC(=O)Cn3nc(C(F)(F)F)c4c3C(F)(F)[C@@H]3C[C@H]43)ccc(Cl)c12)S(C)(=O)=O [Compound 9, N-(4-chloro-7-(2-((S)-1-(2-((3bS,4aR)-5,5-difluoro-3-(trifluoromethyl)-3b,4,4a,5-tetrahydro-1H-cyclopropa[3,4]cyclopenta[1,2-c]pyrazol-1-yl)acetamido)-2-(3,5-difluorophenyl)ethyl)-6-(3-methyl-3-(methylsulfonyl)but-1-ynyl)pyridin-3-yl)-1-(2,2,2-trifluoroethyl)-1H-indazol-3-yl)-N-(methylsulfonyl)-2,5,8,11,14-pentaoxahexadecan-16-amide] | 1/1 μM | 1/1 μM |
| COC(=O)CCC(=O)N(c1nn(CC(F)(F)F)c2c(-c3ccc(C#CC(C)(C)S(C)(=O)=O)nc3[C@H](Cc3cc(F)cc(F)c3)NC(=O)Cn3nc(C(F)(F)F)c4c3C(F)(F)[C@@H]3C[C@H]43)ccc(Cl)c12)S(C)(=O)=O [Compound 10, methyl 4-(N-(4-chloro-7-(2-((S)-1-(2-((3bS,4aR)-5,5-difluoro-3-(trifluoromethyl)-3b,4,4a,5-tetrahydro-1H-cyclopropa[3,4]cyclopenta[1,2-c]pyrazol-1-yl)acetamido)-2-(3,5-difluorophenyl)ethyl)-6-(3-methyl-3-(methylsulfonyl)but-1-yn-1-yl)pyridin-3-yl)-1-(2,2,2-trifluoroethyl)-1H-indazol-3-yl)methylsulfonamido)-4-oxobutanoate] | 1/1 μM | 1/1 μM |
| CC(C)(C#Cc1ccc(-c2ccc(Cl)c3c(N(C(=O)[C@@H](N)CCCCN)S(C)(=O)=O)nn(CC(F)(F)F)c23)c([C@H](Cc2cc(F)cc(F)c2)NC(=O)Cn2nc(C(F)(F)F)c3c2C(F)(F)[C@@H]2C[C@H]32)n1)S(C)(=O)=O [Compound 11, (S)-2,6-diamino-N-(4-chloro-7-(2-((S)-1-(2-((3bS,4aR)-5,5-difluoro-3-(trifluoromethyl)-3b,4,4a,5-tetrahydro-1H-cyclopropa[3,4]cyclopenta[1,2-c]pyrazol-1-yl)acetamido)-2-(3,5-difluorophenyl)ethyl)-6-(3-methyl-3-(methylsulfonyl)but-1-yn-1-yl)pyridin-3-yl)-1-(2,2,2-trifluoroethyl)-1H-indazol-3-yl)-N-(methylsulfonyl)hexanamide] | 100 μM | 43 μM |
| CC(C)(C#Cc1ccc(-c2ccc(Cl)c3c(N(C(=O)CN)S(C)(=O)=O)nn(CC(F)(F)F)c23)c([C@H](Cc2cc(F)cc(F)c2)NC(=O)Cn2nc(C(F)(F)F)c3c2C(F)(F)[C@@H]2C[C@H]32)n1)S(C)(=O)=O [Compound 12, 2-amino-N-(4-chloro-7-(2-((S)-1-(2-((3bS,4aR)-5,5-difluoro (trifluoromethyl)-3b,4,4a,5-tetrahydro-1H-cyclopropa[3,4]cyclopenta[1,2-c]pyrazolyl)acetamido)-2-(3,5-difluorophenyl)ethyl)-6-(3-methyl-3-(methylsulfonyl)but-1-ynyl)pyridin-3-yl)-1-(2,2,2-trifluoroethyl)-1H-indazol-3-yl)-N-(methylsulfonyl)acetamide] | 65 μM | 8 μM |
| CC(C)(C#Cc1ccc(-c2ccc(Cl)c3c(N(C(=O)CNC(=O)C(=O)O)S(C)(=O)=O)nn(CC(F)(F)F)c23)c([C@H](Cc2cc(F)cc(F)c2)NC(=O)Cn2nc(C(F)(F)F)c3c2C(F)(F)[C@@H]2C[C@H]32)n1)S(C)(=O)=O [Compound 13, 2-((2-(N-(4-chloro-7-(2-((S)-1-(2-((3bS,4aR)-5,5-difluoro-3-(trifluoromethyl)-3b,4,4a,5-tetrahydro-1H-cyclopropa[3,4]cyclopenta[1,2-c]pyrazol-1-yl)acetamido)-2-(3,5-difluorophenyl)ethyl)-6-(3-methyl-3-(methylsulfonyl)but-1-yn-1-yl)pyridin-3-yl)-1-(2,2,2-trifluoroethyl)-1H-indazol-3-yl)methylsulfonamido)-2-oxoethyl)amino)-2-oxoacetic acid] | 1 μM | 90 μM |
| CC(C)[C@H](N)C(=O)OCCCCC(=O)N(c1nn(CC(F)(F)F)c2c(-c3ccc(C#CC(C)(C)S(C)(=O)=O)nc3[C@H](Cc3cc(F)cc(F)c3)NC(=O)Cn3nc(C(F)(F)F)c4c3C(F)(F)[C@@H]3C[C@H]43)ccc(Cl)c12)S(C)(=O)=O [Compound 14] | 7 μM | 1 μM |
| CC(C)(CC(=O)O)C(=O)N(c1nn(CC(F)(F)F)c2c(-c3ccc(C#CC(C)(C)S(C)(=O)=O)nc3[C@H](Cc3cc(F)cc(F)c3)NC(=O)Cn3nc(C(F)(F)F)c4c3C(F)(F)[C@@H]3C[C@H]43)ccc(Cl)c12)S(C)(=O)=O [Compound 15, 4-(N-(4-chloro-7-(2-((S)-1-(2-((3bS,4aR)-5,5-difluoro-3-(trifluoromethyl)-3b,4,4a,5-tetrahydro-1H-cyclopropa[3,4]cyclopenta[1,2-c]pyrazol-1-yl)acetamido)-2-(3,5-difluorophenyl)ethyl)-6-(3-methyl-3-(methylsulfonyl)but-1-yn-1-yl)pyridin-3-yl)-1-(2,2,2-trifluoroethyl)-1H-indazol-3-yl)methylsulfonamido)-3,3-dimethyl-4-oxobutanoic acid] | 1/1 μM | 1/1 μM |
| CN(C)CCCC[C@H](N)C(=O)N(c1nn(CC(F)(F)F)c2c(-c3ccc(C#CC(C)(C)S(C)(=O)=O)nc3[C@H](Cc3cc(F)cc(F)c3)NC(=O)Cn3nc(C(F)(F)F)c4c3C(F)(F)[C@@H]3C[C@H]43)ccc(Cl)c12)S(C)(=O)=O [Compound 16, ((S)-2-amino-N-(4-chloro-7-(2-((S)-1-(2-((3bS,4aR)-5,5-difluoro-3-(trifluoromethyl)-3b,4,4a,5-tetrahydro-1H-cyclopropa[3,4]cyclopenta[1,2-c]pyrazolyl)acetamido)-2-(3,5-difluorophenyl)ethyl)-6-(3-methyl-3-(methylsulfonyl)but-1-ynyl)pyridin-3-yl)-1-(2,2,2-trifluoroethyl)-1H-indazol-3-yl)-6-(dimethylamino)-N-(methylsulfonyl)hexanamide)] | 92 μM | 20 μM |
| CNCC(=O)N(c1nn(CC(F)(F)F)c2c(-c3ccc(C#CC(C)(C)S(C)(=O)=O)nc3[C@H](Cc3cc(F)cc(F)c3)NC(=O)Cn3nc(C(F)(F)F)c4c3C(F)(F)[C@@H]3C[C@H]43)ccc(Cl)c12)S(C)(=O)=O [Compound 19, (N-(4-chloro-7-(2-((S)-1-(2-((3bS,4aR)-5,5-difluoro (trifluoromethyl)-3b,4,4a,5-tetrahydro-1H-cyclopropa[3,4]cyclopenta[1,2-c]pyrazolyl)acetamido)-2-(3,5-difluorophenyl)ethyl)-6-(3-methyl-3-(methylsulfonyl)but-1-ynyl)pyridin-3-yl)-1-(2,2,2-trifluoroethyl)-1H-indazol-3-yl)-2-(methylamino)-N-(methylsulfonyl)acetamide)] | 37 μM | 6 μM |
